PMC12823633 (Cancer Chemotherapy and Pharmacology, 2026)

What was measured:
[1] = Adverse events, DDI evaluation period; type: in vivo, human (patients with solid tumors)
CYP3A4 = settings: human, plasma, oral, 2.5 mg
[2] = After Administration of TAS-115, DDI period (N=18)
[3] = Before Administration of TAS-115 (N=18)
[4] = Entire DDI Evaluation Period (N=18)

## Cc1ncc2n1-c1ccc(Cl)cc1C(c1ccccc1F)=NC2 [Midazolam, midazolam, reference compound]
[1]; [2]
  Any >=Grade 3 TRAEs Related to Midazolam: 0 (0.0) N (%)
  Any TRAEs Related to Midazolam: 0 (0.0) N (%)
[1]; [3]
  Any >=Grade 3 TRAEs Related to Midazolam: 0 (0.0) N (%)
  Any TRAEs Related to Midazolam: 0 (0.0) N (%)
[1]; [4]
  Any >=Grade 3 TRAEs Related to Midazolam: 0 (0.0) N (%)
  Any TRAEs Related to Midazolam: 0 (0.0) N (%)
CYP3A4
  AUC(0-inf): 56.8 ng·h/mL
  AUC(0-t): 55.5 ng·h/mL
  Cmax: 21.9 ng/mL
